According to patent US9951088B2, “D2 receptor modulators and methods of use thereof in the treatment of diseases and disorders” (SUNOVION PHARMACEUTICALS INC., priority 2012, dated 2018):

Assays:
[1] = target: T1, long isoform of human D2 receptor (Homo sapiens, UniProt P14416); assay: Arrestin Antagonist Assay (DRD2L PathHunter CHO-K1 cells, vs EC80 dopamine); conditions: for Emax: CHO-K1, read-out: β-arrestin (antagonist mode) Imax
Method: (§1) Cell Lines: Activities of the compounds were assessed using a Chinese Hamster Ovary (CHO—K1) cell line that recombinantly expressed the long isoform of human D2 receptor (DRD2L PathHunter cells). The D2 receptor DNA sequence was modified to contain a “ProLink” at its C-terminus which allowed complementation with an “enzyme acceptor” (EA)-tagged β-arrestin protein. The recruitment of the O-arrestin by the D2 receptor led to complementation of the ProLink and EA and formation of active β-galactosidase which generated a D2-specific signal that was measured.
Arrestin Antagonist Assay: One day prior to testing, a vial of high density stock of DRD2L PathHunter cells was thawed, and 1×10^7 cells diluted into 40 mL of growth media (Ham's F12/10% HI FBS/1% PSG). 20 μL cells per well were seeded directly into assay plates, and the plates were allowed to rest for 1 h at RT before incubating in a plate incubator overnight.
The plate was incubated for 30 min at 37° C. 15 μL PathHunter detection reagent was added to each well of the assay plate, which was then covered and incubated for 1 h at RT. The plate was read on an Envision reader using the Luminescence protocol, and the data were exported for analysis.
The IC50 values (concentration producing a half-maximal inhibitory response) were determined by non-linear regression analysis of the concentration-response curves.

[2] = target: T1, long isoform of human D2 receptor; assay: cAMP HTRF Agonist Assay (DRD2L PathHunter CHO-K1 cells, forskolin-stimulated)
[3] = target: T1, long isoform of human D2 receptor; assay: Arrestin Agonist Assay (DRD2L PathHunter CHO-K1 cells, β-arrestin recruitment)
Method: as §1
Arrestin Agonist Assay: One day prior to testing, a vial of high density stock of DRD2L PathHunter cells was thawed, and 1×10^7 cells diluted into 40 mL of growth media (Ham's F12/10% HI FBS/1% PSG). 20 μL cells per well were seeded directly into assay plates, and the plates were allowed to rest for 1 h at RT before incubating in a plate incubator overnight.
5 μL diluted compound was added to cells in each well, and the assay plate was incubated for 90 min at 37° C. 12.5 μL PathHunter detection reagent was added to each well of the assay plate, which was then covered and incubated for 1 h at RT. The plate was read on an Envision reader using the Luminescence protocol, and the data were exported for analysis.
The agonist Emax results were expressed as a percent of the dopamine control response ((measured specific response/control specific agonist response)×100) obtained in the presence of test article. The EC50 values (concentration producing a half-maximal specific response) were determined by non-linear regression analysis of the concentration-response curves.

[4] = CHO-K1, read-out: cAMP (agonist mode) Emax
[5] = CHO-K1, read-out: β-arrestin (agonist mode) Emax
[6] = CHO-K1, read-out: Emax in cAMP agonist assay
[7] = CHO-K1, read-out: Emax in β-arrestin agonist assay

T1 sequence (P14416 whole entry, canonical isoform): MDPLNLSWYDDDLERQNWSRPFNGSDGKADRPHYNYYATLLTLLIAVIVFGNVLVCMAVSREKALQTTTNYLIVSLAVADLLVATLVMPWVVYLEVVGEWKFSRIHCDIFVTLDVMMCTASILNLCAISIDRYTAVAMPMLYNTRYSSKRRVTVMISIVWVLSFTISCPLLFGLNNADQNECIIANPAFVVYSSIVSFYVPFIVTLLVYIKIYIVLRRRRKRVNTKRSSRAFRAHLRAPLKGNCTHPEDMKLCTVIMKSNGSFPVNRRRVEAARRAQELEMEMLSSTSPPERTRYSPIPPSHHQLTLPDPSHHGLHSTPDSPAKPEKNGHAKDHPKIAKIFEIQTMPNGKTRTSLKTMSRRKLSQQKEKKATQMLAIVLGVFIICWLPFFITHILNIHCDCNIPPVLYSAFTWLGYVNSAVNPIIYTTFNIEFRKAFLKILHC

Emax [2, 6] | Emax [3, 7] | Structure (SMILES) | IC50 [1] | Emax [1] | IC50 [2] | Emax [2, 4] | EC50 [3] | Emax [3, 5]
– | – | Clc1cccc(N2CCN(CCCCOc3ccc4cn[nH]c4n3)CC2)c1Cl [Compound 1, 6-(4-(4-(2,3-dichlorophenyl)piperazin-1-yl)butoxy)-1H-pyrazolo[3,4-b]pyridine] | < 0.01 µM | > 75% | < 0.01 µM | 25 to 50% | > 10 µM | < 10%
– | – | c1ccc2c(N3CCN(CCCCOc4ccc5cn[nH]c5n4)CC3)cccc2c1 [Compound 2, 6-(4-(4-(naphthalen-1-yl)piperazin-1-yl)butoxy)-1H-pyrazolo[3,4-b]pyridine] | 0.1 to 1 µM | 50 to 75% | 0.01 to 0.1 µM | 10 to 25% | 0.01 to 0.1 µM | 10 to 25%
– | – | Cc1cccc(N2CCN(CCCCOc3ccc4cn[nH]c4n3)CC2)c1C [Compound 3, 6-(4-(4-(2,3-dimethylphenyl)piperazin-1-yl)butoxy)-1H-pyrazolo[3,4-b]pyridine] | 0.1 to 1 µM | > 75% | 0.01 to 0.1 µM | 10 to 25% | > 10 µM | < 10%
– | – | c1ccc(N2CCN(CCCCOc3ccc4cn[nH]c4n3)CC2)nc1 [Compound 4, 6-(4-(4-(pyridin-2-yl)piperazin-1-yl)butoxy)-1H-pyrazolo[3,4-b]pyridine] | > 10 µM | < 10% | < 0.01 µM | > 75% | 0.01 to 0.1 µM | > 75%
– | – | Oc1cccc2ccc(OCCCCN3CCN(c4cccc(Cl)c4Cl)CC3)nc12 [Compound 5, 2-(4-(4-(2,3-dichlorophenyl)piperazin-1-yl)butoxy)quinolin-8-ol] | 0.1 to 1 µM | > 75% | 0.01 to 0.1 µM | 25 to 50% | 0.01 to 0.1 µM | 10 to 25%
– | – | Oc1cccc2ccc(OCCCCN3CCN(c4cccc5ccccc45)CC3)nc12 [Compound 6, 2-(4-(4-(naphthalen-1-yl)piperazin-1-yl)butoxy)quinolin-8-ol] | 0.1 to 1 µM | 50 to 75% | 0.01 to 0.1 µM | 25 to 50% | 0.1 to 1 µM | 25 to 50%
– | – | Cc1cccc(N2CCN(CCCCOc3ccc4cccc(O)c4n3)CC2)c1C [Compound 7, 2-(4-(4-(2,3-dimethylphenyl)piperazin-1-yl)butoxy)quinolin-8-ol] | 0.1 to 1 µM | > 75% | 0.01 to 0.1 µM | 25 to 50% | > 10 µM | < 10%
– | – | Oc1cccc2ccc(OCCCCN3CCN(c4ccccn4)CC3)nc12 [Compound 8, 2-(4-(4-(pyridin-2-yl)piperazin-1-yl)butoxy)quinolin-8-ol] | > 10 µM | < 10% | < 0.01 µM | > 75% | 0.01 to 0.1 µM | > 75%
– | – | COc1cccnc1N1CCN(CCCCOc2ccc3cccc(O)c3n2)CC1 [Compound 9, 2-(4-(4-(3-methoxypyridin-2-yl)piperazin-1-yl)butoxy)quinolin-8-ol] | 0.01 to 0.1 µM | > 75% | < 0.01 µM | 25 to 50% | > 10 µM | < 10%
– | – | CCOc1cccnc1N1CCN(CCCCOc2ccc3cccc(O)c3n2)CC1 [Compound 10, 2-(4-(4-(3-ethoxypyridin-2-yl)piperazin-1-yl)butoxy)quinolin-8-ol] | 0.01 to 0.1 µM | > 75% | < 0.01 µM | 25 to 50% | < 0.01 µM | 10 to 25%
– | – | CCCOc1cccnc1N1CCN(CCCCOc2ccc3cccc(O)c3n2)CC1 [Compound 11, 2-(4-(4-(3-propoxypyridin-2-yl)piperazin-1-yl)butoxy)quinolin-8-ol] | 0.1 to 1 µM | > 75% | > 10 µM | < 10% | > 10 µM | < 10%
≥ 90% | ≥ 90% | CCCN[C@H]1CCc2nc(N)sc2C1 [pramipexole, reference compound] | – | – | – | – | – | –
≥ 90% | ≥ 90% | CCCN(CCC)CCc1cccc2c1CC(=O)N2 [ropinirole, reference compound] | – | – | – | – | – | –
